Experimental data reported in paper PMC8854749, “Celastrol Inhibits Canine Mammary Tumor Cells by Inducing Apoptosis via the Caspase Pathway” (Frontiers in Veterinary Science, 2022).
Peptide text beside a SMILES is read from it. * marks the point of attachment. Cbz = O=C(OCc1ccccc1)*; CH2F = FC*

Experiments:
Assay in all cases: Western blot of apoptosis- and cell cycle-related proteins
Format in all cases: cell-based, canine
[1] = system: CIPp cells; settings: inhibitor with celastrol, 24 h, vs celastrol alone
Method: (§1) The CMT-7364 and CIPp cells were treated with different concentrations of Caspase inhibitor Z-V-F and/or celastrol for 24 h, and the cells were lysed with RIPA lysis buffer on ice. The protein was extracted according to the manufacturer's instructions, and protein concentration was determined by the BCA protein concentration assay kit. The loading amount of 20 μg protein in each group was separated by 10% SDS-PAGE, the separated protein was transferred to polyvinylidene fluoride membrane. After blocking with 5% skimmed milk for 1 h, the membrane was washed two times with 0.5% PBS-Tween 20 (PBS-T), then the membrane with the primary antibody was incubated overnight in a shaker at 4°C. Primary antibodies include β-actin (1:2,000), p65 (1:1,000), NF-κB (1:1,000), Caspase-9 (1:1,000), Caspase-3 (1:1,000), Bax (1:2,000), Bcl-2 (1:1,000), Cyclin D1 (1:1,000), p21 (1:1,000), and p27 (1:1,000). After washing 3 times with PBS-T buffer for 10 min each time, the membrane was incubated with HRP-conjugated secondary antibody at 37°C for 30 min. Secondary antibodies include anti-mouse IgG antibody (1:5,000), anti-rabbit IgG antibody (1:2,000~1:4,000). The membrane was washed 3 times with PBS-T for 10 min each time. Finally, it was detected by an enhanced chemiluminescence detection system, and the results were quantified by ImageJ.

[2] = system: CMT-7364 cells; settings: inhibitor with celastrol, 24 h, vs celastrol alone
Method: as §1

[3] = system: CMT-7364 cells; settings: inhibitor with 0.9 μM celastrol, 24 h
[4] = system: CIPp cells; settings: inhibitor with 0.9 μM celastrol, 24 h

COC(=O)C[C@H](NC(=O)[C@H](C)NC(=O)[C@@H](NC(=O)OCc1ccccc1)C(C)C)C(=O)CF [Z-V-F, Z-VAD-FMK] (Cbz-Val-Ala-Asp(OMe)-CH2F)
expression of anti-apoptotic protein Bcl-2 [1]: increased | expression of pro-apoptotic protein Bax induced by celastrol [1]: decreased | expression of anti-apoptotic protein Bcl-2 [2]: increased | expression of pro-apoptotic protein Bax induced by celastrol [2]: decreased | effect on 0.9 μM celastrol-induced apoptosis [3]: block | effect on 0.9 μM celastrol-induced apoptosis [4]: block
